# “And” between values parts separate entries of the source, which are not always exact repeats. Equal entries are not always repeated. “Also recorded” adds a separate entry of the source.
# System: CD19+ tonsil B-cells
# Format: cell-based, human
# Details: not given
row,Substance,fraction of B-cell population (CD19+) that bound gp120
1,gp120: recombinant gp120 from HIV-1SF2 expressed in CHO cells,4% and 3-6%

# System: tonsil T-cells (CD19-, CD3+)
# Format: cell-based, human
# Details: not given
row,Substance,fraction of T-cell population (CD19-) that bound gp120
1,gp120: recombinant gp120 from HIV-1SF2 expressed in CHO cells,68% and 65%

# System: polyclonal serum IgM binding to gp120 from HIV-1SF2
# Parameters: species or system human
# Details: not given
row,Substance,inhibition of polyclonal serum IgM binding to gp120
1,"CTRPNYNKRKRIHIGPGRAF [Peptide 1985, gp160 peptide 301-320, HIV-1 MN]",does not inhibit

# Same assay, conditions: gp120 elisa
Substance,"RESIDUAL BINDING TO gp120 (% OF CONTROL), 1.0 μM PEPTIDE [% OF CONTROL]","RESIDUAL BINDING TO gp120 (% OF CONTROL), 10.0 μM PEPTIDE [% OF CONTROL]"
"MRVKGIRRNYQHWWGWGTM [Peptide 1919, gp160 peptide, amino acids 1-20, HIV-1 MN]",17.6 ± 0.2,
"KWNDTLRQIVSKLKEQFKNK [Peptide 1989, gp160 peptide 341-360, HIV-1 MN]",88.5 ± 3.6,24.6 ± 6.6
"RQAHCNISRAKWNDTLRQIV [Peptide 1988, gp160 peptide 331-350, HIV-1 MN]",39.9 ± 3.6,23.7 ± 9.7
"KGSCKNVSTVQCTHGIRPVV [Peptide 1960, gp160 peptide 241-260, HIV-1 MN]",19.2 ± 1.0,11.7 ± 2.3
"KQIINMWQEVGKAMYAPPIE [Peptide 2007, gp160 peptide 421-440, HIV-1 MN]",59.1 ± 0.8,19.8 ± 5.4
"TKAKRRVVQREKRAAIGALP [Peptide 2015, gp160 peptide 501-520, HIV-1 MN]",44.5 ± 5.4,29.3 ± 5.1

# System: monoclonal IgM HEA binding to gp120
# Parameters: species or system human
# Details: gp120 elisa
Substance,"RESIDUAL BINDING TO gp120 (% OF CONTROL), 1.0 μM PEPTIDE [% OF CONTROL]","RESIDUAL BINDING TO gp120 (% OF CONTROL), 10.0 μM PEPTIDE [% OF CONTROL]"
"MRVKGIRRNYQHWWGWGTM [Peptide 1919, gp160 peptide, amino acids 1-20, HIV-1 MN]",56.1 ± 3.6,15.1 ± 2.1
"KWNDTLRQIVSKLKEQFKNK [Peptide 1989, gp160 peptide 341-360, HIV-1 MN]",98.3 ± 0.1,26.2 ± 0.8
"RQAHCNISRAKWNDTLRQIV [Peptide 1988, gp160 peptide 331-350, HIV-1 MN]",92.8 ± 0.4,40.8 ± 6.1
"KGSCKNVSTVQCTHGIRPVV [Peptide 1960, gp160 peptide 241-260, HIV-1 MN]",11.3 ± 2.5,6.2 ± 3.0
"KQIINMWQEVGKAMYAPPIE [Peptide 2007, gp160 peptide 421-440, HIV-1 MN]",56.2 ± 4.7,10.3 ± 0.5

# System: monoclonal IgM VIN binding to gp120
# Parameters: species or system human
# Details: gp120 elisa
Substance,"RESIDUAL BINDING TO gp120 (% OF CONTROL), 1.0 μM PEPTIDE [% OF CONTROL]","RESIDUAL BINDING TO gp120 (% OF CONTROL), 10.0 μM PEPTIDE [% OF CONTROL]"
"MRVKGIRRNYQHWWGWGTM [Peptide 1919, gp160 peptide, amino acids 1-20, HIV-1 MN]",28.1 ± 5.0,14.8 ± 2.0
"KWNDTLRQIVSKLKEQFKNK [Peptide 1989, gp160 peptide 341-360, HIV-1 MN]",96.6 ± 6.1,13.4 ± 1.8
"RQAHCNISRAKWNDTLRQIV [Peptide 1988, gp160 peptide 331-350, HIV-1 MN]",12.4 ± 0.6,12.2 ± 7.8
"KGSCKNVSTVQCTHGIRPVV [Peptide 1960, gp160 peptide 241-260, HIV-1 MN]",6.2 ± 1.3,5.8 ± 1.3
"KQIINMWQEVGKAMYAPPIE [Peptide 2007, gp160 peptide 421-440, HIV-1 MN]",69.8 ± 4.2,21.2 ± 1.2
"TKAKRRVVQREKRAAIGALP [Peptide 2015, gp160 peptide 501-520, HIV-1 MN]",23.7 ± 3.4,6.5 ± 2.0

# System: monoclonal IgM RSJ binding to gp120
# Parameters: species or system human
# Details: gp120 elisa
Substance,"RESIDUAL BINDING TO gp120 (% OF CONTROL), 1.0 μM PEPTIDE [% OF CONTROL]","RESIDUAL BINDING TO gp120 (% OF CONTROL), 10.0 μM PEPTIDE [% OF CONTROL]"
"MRVKGIRRNYQHWWGWGTM [Peptide 1919, gp160 peptide, amino acids 1-20, HIV-1 MN]",11.1 ± 1.5,1.3 ± 0.1
"RQAHCNISRAKWNDTLRQIV [Peptide 1988, gp160 peptide 331-350, HIV-1 MN]",20.3 ± 1.5,13.5 ± 0.4
"KGSCKNVSTVQCTHGIRPVV [Peptide 1960, gp160 peptide 241-260, HIV-1 MN]",10.2 ± 2.4,4.2 ± 5.0
"KQIINMWQEVGKAMYAPPIE [Peptide 2007, gp160 peptide 421-440, HIV-1 MN]",24.1 ± 0.1,3.1 ± 0.7

# System: monoclonal IgM VNG binding to gp120
# Parameters: species or system human
# Details: not given
row,Substance,binding of VNG to peptide
1,"CTRPNYNKRKRIHIGPGRAF [Peptide 1985, gp160 peptide 301-320, HIV-1 MN]",bound

# Same assay, conditions: gp120 elisa
Substance,"RESIDUAL BINDING TO gp120 (% OF CONTROL), 1.0 μM PEPTIDE [% OF CONTROL]","RESIDUAL BINDING TO gp120 (% OF CONTROL), 10.0 μM PEPTIDE [% OF CONTROL]"
"MRVKGIRRNYQHWWGWGTM [Peptide 1919, gp160 peptide, amino acids 1-20, HIV-1 MN]",46.4 ± 20.2,3.3 ± 1.7
"KGSCKNVSTVQCTHGIRPVV [Peptide 1960, gp160 peptide 241-260, HIV-1 MN]",58.1 ± 0,32.3 ± 7.1
"TKAKRRVVQREKRAAIGALP [Peptide 2015, gp160 peptide 501-520, HIV-1 MN]",83.0 ± 6.3,37.7 ± 2.0
"CTRPNYNKRKRIHIGPGRAF [Peptide 1985, gp160 peptide 301-320, HIV-1 MN]",27.4 ± 0.5,24.2 ± 0.1

# System: panel of Ig-SAg binding antibodies (polyclonal IgM plus four monoclonal IgM) binding to gp120
# Parameters: species or system human
# Details: not given
Substance,inhibition of IgM binding to gp120 by shared peptides,peptide binding across all Ig tested
"MRVKGIRRNYQHWWGWGTM [Peptide 1919, gp160 peptide, amino acids 1-20, HIV-1 MN]",abolished the binding of IgM to gp120,bound to all Ig tested; also recorded: bound to all of the monoclonal antibodies as well as to polyclonal serum IgM
"KGSCKNVSTVQCTHGIRPVV [Peptide 1960, gp160 peptide 241-260, HIV-1 MN]",,bound to all Ig tested

# System: VH3 IgM binding to gp120
# Details: not given
row,Substance,inhibition of gp120 binding to VH3 IgM
1,"MRVKGIRRNYQHWWGWGTM [Peptide 1919, gp160 peptide, amino acids 1-20, HIV-1 MN]",inhibited gp120 binding to VH3 IgM

# Reference: patent US5691135A, “Immunoglobulin superantigen binding to gp 120 from HIV” (The Regents of the University of California, priority 1994, dated 1997)
